Reference: patent US8741892B2, “Compounds” (Boehringer Ingelheim International GmbH, priority 2011, dated 2014)

target: T1, human recombinant mGluR5 (Homo sapiens, UniProt P41594); test: positive modulation of mGluR5, calcium based FLIPR assay; details: HEK 293 cell line expressing human recombinant mGluR5; EC50 of the modulation from peak Ca fluorescence signal after glutamate at approx. 5% basal stimulation
T1 construct: expressed in transfected cells; host or cells: HEK 293
Method: The positive modulation of mGluR5 is measured in a HEK 293 cell line expressing human recombinant mGluR5 and is detected with calcium based FLIPR assay. The cells are cultured with DMEM supplemented with 10% FCS, 2 μg/mL tetracycline, 100 μg/mL hygromycin and 500 μg/mL geneticin. The cell culture media is exchanged for tetracycline-free cell culture media 3-7 days before the assay. One day before the assay the cell culture medium is exchanged to DMEM without glutamine and phenol red and supplemented with 10% FCS, 100 μg/mL hygromycin and 500 μg/mL geneticin. On the assay day, the medium of the subconfluent cultures is removed and the cells are detached by addition of 2.5 ml EDTA (0.02%) per 175 cm2 culture flask for 1 minute. The cells are resuspend in Ringer solution (140 mM NaCl, 5 mM KCl, 2.5 mM CaCl2, 1.5 mM MgCl2, 5 mM Glucose, 10 mM Hepes; adjusted to pH 7.4 with NaOH), pooled and Ringer solution added to adjust the volume to 50 mL. The cell suspension is centrifuged for […] at 1500 U/min (425 g). The supernatant is removed and the cells washed a second time with 50 ml fresh Ringer solution and centrifuged again as before. The supernatant is again removed and the pellet resuspended in Ringer solution to 1,000,000 cells/ml (1×10^6 cells/mL). The cells are plated onto BD BioCoat Poly-D-Lysine 384 well plates (20.000 cells/well; 20 μl/well). The lid covered plates are then incubated until use at 37° C./10% CO2. For dye loading, 20 μl of Calcium-4 assay kit solution (prepared according to the manufacturer's description in Ringer solution) are added to the cells and the plates are incubated for […] 37° C. and then […] at room temperature.
Controls, Compound Dilution and Assay Execution:
Each assay plate contained wells with “high” and “low” controls:
Low controls 1% DMSO/ringer solution+basal glutamate activation (defined as 100% CTL).
High controls 10 μM CDPPB+basal glutamate activation (defined as 200% CTL).
Test compounds are dissolved and diluted in DMSO to 100-fold the desired concentrations. In a second step, the compounds are diluted in Ringer solution such that the compounds are 4-fold more concentrated than the desired final assay concentration. The final DMSO concentration was 1%.
20 μl of each compound solution are then transferred to the assay plate and the Ca2+ kinetic is measured to determine any intrinsic compound activity. After 5 mM incubation in the FLIPR device, the second stimulation with 20 μl of glutamate in Ringer solution (glutamate concentration adjusted to approximately 5% basal stimulation of the maximal possible glutamate effect) is added and the kinetic Ca2+ response of the wells was measured for the modulation effect.
The peak height of the Ca release related fluorescence signal (9-66) is used for the EC50. The EC50 of the modulation is calculated over a nonlinear regression with GraphPad Prism (Table 1).

T1 sequence (P41594 21-1212): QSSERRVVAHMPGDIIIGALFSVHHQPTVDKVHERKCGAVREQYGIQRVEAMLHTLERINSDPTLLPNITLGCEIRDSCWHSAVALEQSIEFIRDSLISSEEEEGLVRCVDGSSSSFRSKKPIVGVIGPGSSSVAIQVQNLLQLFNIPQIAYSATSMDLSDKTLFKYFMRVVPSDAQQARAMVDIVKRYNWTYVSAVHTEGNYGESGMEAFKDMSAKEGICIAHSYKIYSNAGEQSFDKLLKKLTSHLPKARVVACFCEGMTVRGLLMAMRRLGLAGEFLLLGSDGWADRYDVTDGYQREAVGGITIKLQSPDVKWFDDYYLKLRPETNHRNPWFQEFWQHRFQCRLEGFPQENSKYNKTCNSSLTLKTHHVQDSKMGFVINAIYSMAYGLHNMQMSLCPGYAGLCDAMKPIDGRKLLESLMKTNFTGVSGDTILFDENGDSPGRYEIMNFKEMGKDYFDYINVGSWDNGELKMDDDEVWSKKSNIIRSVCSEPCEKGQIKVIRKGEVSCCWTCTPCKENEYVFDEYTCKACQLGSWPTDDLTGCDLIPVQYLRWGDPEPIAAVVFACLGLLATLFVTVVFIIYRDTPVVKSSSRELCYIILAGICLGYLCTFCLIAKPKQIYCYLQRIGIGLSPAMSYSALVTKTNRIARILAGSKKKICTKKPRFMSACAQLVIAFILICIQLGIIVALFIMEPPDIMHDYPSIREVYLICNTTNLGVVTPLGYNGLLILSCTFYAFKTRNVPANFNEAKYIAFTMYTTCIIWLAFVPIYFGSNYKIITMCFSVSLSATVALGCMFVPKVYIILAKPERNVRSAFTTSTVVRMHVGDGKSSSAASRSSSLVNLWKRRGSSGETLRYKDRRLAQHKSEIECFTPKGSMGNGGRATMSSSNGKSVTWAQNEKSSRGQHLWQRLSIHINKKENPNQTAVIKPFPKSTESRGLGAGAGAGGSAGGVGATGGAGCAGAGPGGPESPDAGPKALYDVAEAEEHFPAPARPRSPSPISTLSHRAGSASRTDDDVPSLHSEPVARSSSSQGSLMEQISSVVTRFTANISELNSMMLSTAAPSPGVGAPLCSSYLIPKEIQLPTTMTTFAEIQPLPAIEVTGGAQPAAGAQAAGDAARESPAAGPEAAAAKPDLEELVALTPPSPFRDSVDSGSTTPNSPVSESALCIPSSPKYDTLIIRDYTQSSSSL

Row | EC50 [nM] | Structure (SMILES)
1 | 484 | COC(=O)c1ccc2c(c1)CCN(C(=O)Cn1nc(-c3ccccc3)cc1-c1ccccc1)CC2 [Example 7.01.030]
2 | 156 | CCc1cccc(-c2cc(CC)n(CC(=O)N3CCc4nc(C)sc4CC3)n2)c1 [Example 7.02.129]
3 | 1740 | COc1ccc(-c2cc(C(C)C)n(CC(=O)N3CCc4nc(C)oc4C3)n2)cc1 [Example 7.02.043]
4 | 120 | CCc1cc(-c2ccc(F)c(C)c2)nn1CC(=O)N1CCN(c2nnc(C(F)(F)F)s2)CC1 [Example 7.02.162]
5 | 1300 | CC(C)NC(=O)Nc1nc2c(s1)CN(C(=O)Cn1nc(-c3ccccc3)cc1-c1ccccc1)CC2 [Example 7.01.028]
6 | 38 | Cc1nc2c(s1)CCN(C(=O)Cn1nc(-c3ccc(C)c(C)n3)cc1-c1ccccc1)CC2 [Example 7.02.122]
7 | 695 | O=C(Cn1nc(-c2ccccc2)cc1-c1ccccc1)N1CCc2cc(C(F)(F)F)ccc2C1 [Example 7.01.010]
8 | 69 | Cc1nc2c(s1)CN(C(=O)Cn1nc(-c3ccc(C)c(F)c3)cc1-c1ccccc1)C2 [Example 7.02.252]
9 | 1730 | O=C(Cn1nc(-c2ccccc2)cc1-c1ccccc1)N1CCN(Cc2ccccc2)C(=O)C1 [Example 7.02.063]
10 | 86 | COc1ccc2c(c1)CCN(C(=O)Cn1nc(-c3ccc(F)c(C)c3)cc1-c1ccccc1)CC2 [Example 7.01.083]
11 | 59 | COc1cnc(C2CCN(C(=O)Cn3nc(-c4ccc(C)c(C)c4)cc3-c3ccccc3)CC2)nc1 [Example 7.02.089]
12 | 68 | Cc1nc2c(s1)CN(C(=O)Cn1nc(-c3ccc(C)c(C)n3)cc1-c1ccccc1)C2 [Example 7.02.124]
13 | 18 | CCc1cc(-c2ccc(F)c(C)c2)nn1CC(=O)N1CC=C(c2ncc(C)o2)CC1 [Example 7.02.205]
14 | 24 | Cc1cccc(-c2cc(-c3ccccc3)n(CC(=O)N3Cc4nc(C)sc4C3)n2)c1 [Example 7.02.200]
15 | 62 | COc1ccc(-c2cc(-c3ccccc3)n(CC(=O)N3Cc4nc(C)oc4C3)n2)cc1C [Example 7.02.246]
16 | 913 | Cc1nc2c(s1)CN(C(=O)Cn1nc(-c3ccc(F)cn3)cc1-c1ccccc1)C2 [Example 7.02.057]
17 | 511 | COC(=O)c1ccc2c(c1)CCN(C(=O)Cn1nc(-c3ccccc3)cc1-c1ccccc1)C2 [Example 7.01.022]
18 | 37 | CCCc1cc(-c2ccc(F)c(C)c2)nn1CC(=O)N1CCN(c2cccc(OC)c2)C(=O)C1 [Example 7.02.032]
19 | 12 | Cc1nc2c(s1)CCN(C(=O)Cn1nc(-c3ccc(F)c(C)c3)cc1CC(C)C)CC2 [Example 7.02.119]
20 | 4 | Cc1nc2c(s1)CCN(C(=O)Cn1nc(-c3ccc(OC(F)F)cc3)cc1-c1ccccc1)CC2 [Example 7.02.221]
21 | 1810 | COc1cccc2c1CCN(C(=O)Cn1nc(-c3ccccc3)cc1-c1ccccc1)C2 [Example 7.01.015]
22 | 16 | Cc1nc2c(o1)CN(C(=O)Cn1nc(-c3ccc(C(F)F)cc3)cc1-c1ccccc1)C2 [Example 7.02.257]
23 | 290 | CCCc1cc(-c2ccc(F)c(C)n2)nn1CC(=O)N1Cc2nc(C)sc2C1 [Example 7.02.248]
24 | 1660 | O=C(Cn1nc(-c2ccccc2)cc1-c1ccccc1)N1CCN(c2ccc(F)cc2)C(=O)C1 [Example 7.01.019]
25 | 285 | O=C(Cn1nc(-c2ccccc2)cc1-c1ccccc1)N1CCN(c2nnc(C(F)(F)F)s2)CC1 [Example 7.01.042]
26 | 35 | CCc1cc(-c2ccc(C)c(C)c2)nn1CC(=O)N1CCc2nc(C)sc2CC1 [Example 7.02.083]
27 | 65 | Cc1nnc(N2CCN(C(=O)Cn3nc(-c4ccc(C)c(F)c4)cc3-c3ccccc3)CC2)o1 [Example 7.02.250]
28 | 80 | Cc1nc2c(s1)CN(C(=O)Cn1nc(-c3cccc(C#N)c3)cc1-c1ccccc1)C2 [Example 7.02.191]
29 | 163 | Cc1nc2c(o1)CN(C(=O)Cn1nc(-c3ccc(F)c(C)c3)cc1C)CC2 [Example 7.01.061]
30 | 287 | Cc1nc2c(s1)CN(C(=O)Cn1nc(-c3ccc(F)cn3)cc1-c1ccc(F)cc1)C2 [Example 7.02.059]
